From ChEMBL document CHEMBL1201862, “PubChem BioAssay data set” (2004)
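Compound exposure: 48 hours, 5 concentrations, 96-well plates. Here, GI50 denotes the concentration required for 50% inhibition of growth.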 The source made the active and inactive calls. Rule as the data show it: active = GI50 up to about 1.1 µM and inactive = higher.

What was measured:
Assay in all cases: growth of human tumour cells (NCI), 48 h
[1] = system: SNB-78
[2] = system: LXFL 529
[3] = system: M19-MEL
[4] = system: OVCAR-8
[5] = system: DLD-1
[6] = system: MOLT-4
[7] = system: UO-31
[8] = system: XF498
[9] = system: RXF 393
[10] = system: K562
[11] = system: HCT-15
[12] = system: SN12C
[13] = system: HT-29
[14] = system: HOP-18
[15] = system: UACC-257
[16] = system: SK-MEL-2
[17] = system: Malme-3M
[18] = system: HCC 2998
[19] = system: SK-MEL-5
[20] = system: SF-295
[21] = system: KM12
[22] = system: SF-268
[23] = system: TK-10
[24] = system: ACHN
[25] = system: 786-0
[26] = system: IGROV-1
[27] = system: M14
[28] = system: HOP-62
[29] = system: HL-60
[30] = system: SK-MEL-28
[31] = system: SK-OV-3
[32] = system: COLO 205
[33] = system: OVCAR-3
[34] = system: RPMI-8226
[35] = system: SF-539
[36] = system: U-251
[37] = system: OVCAR-5
[38] = system: NCI-H23
[39] = system: SNB-75
[40] = system: NCI-H522
[41] = system: CCRF-CEM
[42] = system: HOP-92
[43] = system: KM-20L2
[44] = system: EKVX
[45] = system: UACC-62
[46] = system: LOX IMVI
[47] = system: DMS-273
[48] = system: SNB-19
[49] = system: NCI-H226
[50] = system: SW-620
[51] = system: HCT-116
[52] = system: A549
[53] = system: DMS-114
[54] = system: A498
[55] = system: SR
[56] = system: NCI-H460

Measured: GI50

O=C(C(O)c1cn(Cc2ccccc2)c2ccccc12)N1CCCCC1 (centres undefined)
76.4 µM: [11]
inactive: [1] > 10 µM | [2] 79.6 µM | [3] > 100 µM | [4] > 100 µM | [5] > 100 µM | [6] 39.9 µM | [7] > 100 µM | [8] 93.1 µM | [9] > 10 µM | [10] 30.2 µM | [12] 82.6 µM | [13] > 100 µM | [14] 24.1 µM | [15] 48.9 µM | [16] > 100 µM | [17] > 100 µM | [18] > 100 µM | [19] 30.1 µM | [20] 76 µM | [21] > 100 µM | [22] 83.2 µM | [23] > 10 µM | [24] 53.5 µM | [25] > 100 µM | [26] 30.4 µM | [27] > 100 µM | [28] > 100 µM | [29] > 100 µM | [30] > 10 µM | [31] 72.8 µM | [32] > 100 µM | [33] 50 µM | [34] > 100 µM | [35] > 100 µM | [36] > 10 µM | [37] > 100 µM | [38] > 10 µM | [39] > 100 µM | [40] 44.4 µM | [41] 67.1 µM | [42] > 100 µM | [43] 38.8 µM | [44] 54.6 µM | [45] 95.1 µM | [46] > 100 µM | [47] > 100 µM | [48] > 100 µM | [49] 34.4 µM | [50] > 100 µM | [51] > 100 µM | [52] 45 µM | [53] > 100 µM | [54] > 100 µM | [55] > 100 µM

O=C1/C(=C/c2cccc([N+](=O)[O-])c2)COc2ccc(Br)cc21
inactive: [1] > 100 µM | [2] > 100 µM | [3] > 100 µM | [4] > 100 µM | [5] > 100 µM | [6] 26.9 µM | [7] 95.5 µM | [8] > 100 µM | [9] > 100 µM | [10] 22.9 µM | [56] > 100 µM | [13] 58.6 µM | [14] > 100 µM | [15] > 100 µM | [16] > 100 µM | [17] > 100 µM | [18] > 100 µM | [19] > 100 µM | [20] > 100 µM | [21] > 100 µM | [22] > 100 µM | [23] > 100 µM | [24] > 100 µM | [25] 90.2 µM | [26] > 100 µM | [28] > 100 µM | [29] 17.7 µM | [30] > 100 µM | [31] > 100 µM | [32] > 100 µM | [33] > 100 µM | [34] 2.24 µM | [35] > 100 µM | [36] > 100 µM | [37] > 100 µM | [38] > 100 µM | [39] 55.7 µM | [40] 55 µM | [41] 13.6 µM | [42] > 100 µM | [43] > 100 µM | [44] > 100 µM | [46] 37.2 µM | [47] 45.2 µM | [50] 42.4 µM | [51] 32.6 µM | [52] > 100 µM | [53] 65.9 µM | [54] > 100 µM
